Values quoted from earlier work, collected in article PMC9389804 (Journal of Hematology & Oncology, 2022).

Parameters: method as in PMID 29567798
Conditions: median follow-up of 5 years; cited from earlier work

For `Cc1ccc(C(=O)Nc2ccc(CN3CCN(C)CC3)c(C(F)(F)F)c2)cc1C#Cc1cnc2cccnn12` [ponatinib], the “incidence of arterial occlusive and venous thrombotic events” value is listed as 31.0%.
